From ChEMBL document CHEMBL3507680, “University of Dundee, Gates Library screen for HepG2 cell viability”

Test: Human HepG2 cell viability assay in 384 well format
Type: toxicity, cell-based
Set-up: dose 125 nL, time 70.5 hour; cytotoxicity at 70.5 h: concentration not given beside the values
Settings: HepG2 cells, read-out: Inhibition

Structure (SMILES)	cytotoxicity at 70.5 h [%]
O=C(c1ccc[nH]1)N1CCCn2c(CN3CCCCC3)nnc2C1	-5.4
COc1cccc(N2CCN(C(=O)C(C)Oc3ccccc3)CC2=O)c1 (stereo not drawn)	20.9
Cn1nnnc1SCCNC1CCN(c2ccc3c(c2)OCO3)CC1	4.51
CSc1ncc(CN(C)C(C)c2cccnc2)cn1 (stereo not drawn)	-0.91
N[C@H]1CN(C(=O)Cc2ccc(CO)cc2)C[C@@H]1C1CC1	34.3
Cc1cncc(NC(=O)c2ccc(CN3CC[C@H](O)C3)cc2)c1	19.1
CCOc1ncccc1CNc1cc(COC)ncn1	1.28
COc1cc2nc(NCCN3CCNC3=O)cc(C)c2cc1OC	-0.54
CCOC(=O)C1(CCOC)CCN(Cc2nccn2CC)CC1	-7.56
Cc1cc(C)n(CC(C)NC(=O)C2(c3ccccc3F)CC2)n1 (stereo not drawn)	-7.8
CC(C)Cc1nc(CN(C)c2cc(C(C)C)nc3ccnn23)no1	-10.6
CN(Cc1cc(C(C)(C)C)n[nH]1)C(=O)c1c[nH]nc1-c1cccc(F)c1	-8
O=C(CC1CCCC1)N[C@H]1CN(Cc2c[nH]cn2)C[C@@H]1C1CC1	20.4
Cc1nc(O)cc(CCNC(=O)CN2CCCCCC2)n1	1.28
COCc1nc(NC(C)c2c(C)n[nH]c2C)c2cnn(C)c2n1 (stereo not drawn)	-5.38
Cc1cc(C(F)(F)F)nc(CNc2cc(C)nc3cc(C)nn23)n1	-2.86
CCN(Cc1nc(COC)no1)Cc1ccccc1OCC(=O)O	20
Cc1ccsc1CN1CCC(c2nnc(Cn3cccn3)n2C)CC1	-2.95
Cc1ccc(CN2C[C@@H](C(=O)O)[C@H](c3cccnc3)C2)s1	1.41
Cc1ncc(CN2CCN(C(=O)N(C)C)[C@@H]3CS(=O)(=O)C[C@@H]32)cn1	-26.5
NCC1Cc2cc(-c3cncc(C(=O)N4CCCCC4)n3)cc(F)c2O1 (stereo not drawn)	-4.24
COCCc1noc(CN2CC(Cc3ccccc3)CC2=O)n1 (stereo not drawn)	-20.5
CC1(C)[C@H]2CC=C(CN3CCCn4nc(CNS(C)(=O)=O)cc4C3)[C@@H]1C2	-8.88
CN1CCN(S(=O)(=O)c2ccc(C(=O)N3CC[C@@H](O)C3)cc2)CC1=O	-5.98
C=C(C)COc1cccc(C(=O)N2CCC3(CCOCC3)CC2)c1	3.55
CC(=O)c1ccccc1-c1cc(C(=O)O)cc(S(=O)(=O)NC(C)C)c1	-14.9

Structure (SMILES)	cytotoxicity at 70.5 h [%]
CC(C)C[C@@H](C(N)=O)n1cc(-c2cncnc2)nn1	-8.12
OCc1ccc(CN(CCCn2ccnc2)Cc2ccncc2)o1	-4.15
O=C(c1cccc(-c2ccc(F)cc2)c1)N1CCCC(O)(CO)CC1 (stereo not drawn)	9.52
CCC(=O)N1CCN(C(=O)c2ccc(OC)o2)[C@H]2CS(=O)(=O)C[C@H]21	-4.25
CN1CCN(C(=O)N2CC[C@@](O)(c3ccccc3)[C@H]3CCCC[C@@H]32)CC1	-5.89
Cc1cc(C(F)(F)F)nc(CCNc2nc(C)nc3sccc23)n1	15.7
CN(Cc1cc(C(C)(C)C)n[nH]1)Cc1c[nH]nc1-c1ccc(F)cc1	-4.87
c1cncc(OC2CCN(CCn3cc4ccccc4n3)CC2)c1	-25.2
COc1ccccc1OC1CN(C(=O)Cc2c(C)nc3ccccn23)C1	2.44
CN1CCCCC1Cc1nc2c(cc1C(N)=O)CCC2 (stereo not drawn)	13.7
OCc1csc(N2CCCC(CO)(Cc3cccc(Cl)c3)C2)n1 (stereo not drawn)	12.4
N#Cc1ccccc1C(=O)N1C[C@H]2CC[C@@H]1CN(c1ncccn1)C2	18.3
COc1ccc([C@@H]2CN(c3cc(OC)nc(N)n3)C[C@H]2N(C)C)cc1	-3.33
COCc1nc(CNC2CCN(C(C)C)CC2)no1	-8.15
CC(C)c1noc(-c2ccc(N(C)C3CCOCC3)nc2)n1	10.8
CN(C)C(C(=O)N1CCN(CCn2cccc2)CC1)c1ccc(F)cc1 (stereo not drawn)	-3.42
c1ccc2c(c1)CC(N1CCCC(NCc3cccc4nonc34)C1)C2 (stereo not drawn)	-9.28
O=C(N[C@H]1CN2CCC1CC2)c1cc(Cn2cnc3ccccc32)[nH]n1	-5.02
Cc1cc(CN2CCC(c3cc(Cc4ccccc4)n[nH]3)CC2)[nH]n1	-16.6
O=c1c2ccc(Cl)cc2ncn1CCCN1CCCCC1CO (stereo not drawn)	-15.5
N[C@H]1CN(C(=O)Cc2ccc(Cl)c(Cl)c2)C[C@@H]1C1CC1	13.6
CCCn1c(C)c(CC(=O)NCCC(N)=O)c2c1CC(C)(C)CC2=O	11.1
c1cc(-c2cnccn2)cc(-c2ccn(CCCN3CCCCC3)n2)c1	-7.3
Cc1cc(C)c2c(N(C)CC3COCCO3)ncnc2n1 (stereo not drawn)	-8.16
O=C(O)c1ccccc1-c1c(-c2ccccc2)ncn1CC1CCCO1 (stereo not drawn)	17.5
CN(C)c1ccc(-c2ccnc3c2ccn3C)nn1	18.4

Structure (SMILES)	cytotoxicity at 70.5 h [%]
O=C1CCC2(CCN(Cc3cscn3)CC2)CN1CC1CCCO1 (stereo not drawn)	10.4
CCc1c(C)nn(CCNC(=O)c2cnn[nH]2)c1C	-5.63
Cc1ccccc1C1CCN(CCn2cc(-c3nccs3)nn2)C1 (stereo not drawn)	49.5
CCc1cc(N2CCS(=O)(=O)CC2)n2nc(C)c(C)c2n1	-5.71
N[C@@H](Cc1c[nH]cn1)C(=O)N1CCC(Oc2ccc(Cl)cc2)CC1	28.2
C[C@@H]1CN(Cc2cc(C3CCCCC3)no2)CC[C@]1(C)O	-6.92
N#Cc1cccc(S(=O)(=O)N2CCCCC2CCN2CCCC2)c1 (stereo not drawn)	-3.74
CS(=O)(=O)N1CC[C@]2(O)CCN(c3ccnc(N)n3)C[C@@H]2C1	-0.327
COCCN1CCC2(CCC1=O)CN(c1ccnc(SC)n1)CCN2C (stereo not drawn)	-4.09
Cc1cc(CN(C)c2nc(-c3ccco3)nc3c2CCN(C)CC3)on1	-22.6
CSc1ncc(C(=O)N2CCN(c3ccccc3C)CC2C)cn1 (stereo not drawn)	-2.82
COCCC(=O)N[C@H]1CC[C@H](Nc2nccc(-c3ccncc3)n2)C1	-6.41
OC1CCN(C2CCN(c3ccc(Cn4ccnc4)cn3)CC2)CC1	-17.9
c1cnn(CC2CCN(c3nc(C4CC4)nc4c3CCNCC4)CC2)c1	-0.96
CNC(=O)[C@@H]1C[C@@H](NC(=O)CCCc2cccs2)CN1C1CCOCC1	-1.92
CN(Cc1cnc2ccccc2c1)C(=O)C(c1ccccc1F)N(C)C (stereo not drawn)	-10.3
COc1ccc(C(=O)N2C[C@@H](C(=O)O)[C@H](c3ccccc3)C2)c(O)c1	-8.78
CN(C)CC(=O)NC1CC(C)(C)Cc2nc(C(C)(C)C)ncc21 (stereo not drawn)	46.7
Cc1c[nH]c(CN(C)C(=O)[C@@]23CNC[C@@H]2CN(c2ncccn2)C3)n1	-14
Cc1nccn1CCN(C)c1nc(-c2cccnc2)nc2c1CCNC2	-3.49
CCN1CCc2[nH]cnc2C12CCN(c1ncc(C(=O)O)cc1Cl)CC2	3.78
CN(C)c1nc(NCCc2cnccn2)ncc1F	-9.9
c1cnc(NCc2cncc3c2CCN(CC2CC2)C3)nc1	3.44
Cc1nccc(NCc2cncc3c2CCN(CC2CC2)C3)n1	9.03
Cn1nccc1-c1nnn2c1COCC(CNC1CCOCC1)C2 (stereo not drawn)	0.0787
CCS(=O)(=O)N1CCc2c(COCCN(C)C)cncc2C1	2.79
